Experiments:
[1] = OH-radical-dependent degradation of haeme group (Soret band at 408 nm), Cu/ascorbate Fenton reaction; type: biochemical, Bovine; settings: for inhibition of heme degradation: aqueous assay; for inhibition of heme degradation compared to control: dissolved in DMF
Description: A suitable assay is the inhibition of the OH-radical-dependent degradation of the heme system of heme proteins. The […] of the Soret band of the heme group can be conveniently quantified in the 350-450 nm region. An alternative assay used was the depolymerisation of hyaluronic acid by OH-radicals The progressive depolymerisation of this mucopolysaccharide was followed viscosimetrically and should be inhibited accordingly in the presence of the prazoles. Bovine erythrocytes were haemolysed and diluted with water to give an electronic absorption at 408 nm of 1.0. The assay was performed analogous to that of the myeloperoxidase enzymatic activity test where hypochlorite is produced which is known to degrade the heme group of heme proteins. To 574 μl of aqueous haeme solution in a thermostatted cuvette 6 μl of DMF or water and 10 μl of […] aqueous copper sulphate were added for 5 minutes. The reaction was started after the addition of 10 μl 50 μM ascorbic acid and the absorption followed at 37° C. for two minutes in the control experiment. Depending on the solubility the respective inhibitor was added in a volume of 6 μl in DMF or water. The total volume was 600 μl.

[2] = depolymerisation of hyaluronic acid by OH-radicals, viscosimetric; type: biochemical
Description: A suitable assay is the inhibition of the OH-radical-dependent degradation of the heme system of heme proteins. The […] of the Soret band of the heme group can be conveniently quantified in the 350-450 nm region. An alternative assay used was the depolymerisation of hyaluronic acid by OH-radicals The progressive depolymerisation of this mucopolysaccharide was followed viscosimetrically and should be inhibited accordingly in the presence of the prazoles. Depolymerisation of hyaluronic acid was measured in terms of viscosity change with time. Potassium hyaluronate was purchased from Sigma-Aldrich Chemie, Steinheim, Germany. All operations were performed at room temperature (22° C.). Relative viscosity was monitored by recording the time (seconds) required for a given volume (0.8 ml) of the reaction mixture to drain by gravity from the barrel of a plastic 1 ml syringe through a needle of appropriate size. The meniscus was timed as it passed between two calibration marks on the syringe barrel. […] The reaction was started with 30 μl of 50 mM ascorbic acid in presence of 10 mM phosphate buffer pH 7.2 and incubated for 5 minutes. […] When the water-soluble sodium salt of pantoprazole was examined only 2.5 μl 10 mM copper sulphate and 5 μl 50 mM ascorbic acid were needed to yield an appropriate depolymerization effect.

[3] = superoxide radical scavenging system (superoxide dismutase assay using nitro tetrazolium chloride); type: biochemical
Protocol: In order to examine a possible reactivity of the substituted benzimidazoles with superoxide a standard superoxide dismutase assay using nitro tetrazolium chloride was employed. Scavengeing of hydroxyl radicals was measured by three different established methods.

[4] = stability under conditions of the Fenton reaction, HPLC analysis; type: physicochemical; settings: 90 min of incubation, n=3
Description: In a third completely different method OH-radicals generated during a Fenton reaction decomposed 2-desoxy-D-ribose. This reaction was monitored by measuring the formation of malondialdehyde-like compounds known to yield coloured thiobarbituric acid adducts which were eventually recorded at 532 nm. […] This was attributed to the extraordinary stability of this compound surviving a hydroxyl radical burst A crucial question was the survival of these benzimidazoles during Fenton-type reactions. These stability measurements were conducted employing HPLC analysis allowing the detection of remaining intact primary compounds. A 200 μl aliquot of the incubation mixture was analysed by HPLC using the analytical column Nucleosil C 8, 5 μm (125×4.6 mm, Fa. Grom, Herrenberg, Germany) and the precolumn was LiCHROPREP RP-2 (12×4 mm, Fa. Merck, Darmstadt, Germany) in a reverse phase. A gradient of acetonitrile (10-45% (v/v)) and 10 mM phosphate buffer, pH 7.4, at a flow rate of 1 ml min-1 was used as effluent on the analytical column.

[5] = after oral administration; read-out: maximal concentration (Cmax) in plasma; cited from earlier work
[6] = scavenging of hydroxyl radicals generated during a Fenton reaction (three assays); type: biochemical
Protocol: Bovine erythrocytes were haemolysed and diluted with water to give an electronic absorption at 408 nm of 1.0. The assay was performed analogous to that of the myeloperoxidase enzymatic activity test where hypochlorite is produced which is known to degrade the heme group of heme proteins. To 574 μl of aqueous haeme solution in a thermostatted cuvette 6 μl of DMF or water and 10 μl of […] aqueous copper sulphate were added for 5 minutes. The reaction was started after the addition of 10 μl 50 μM ascorbic acid and the absorption followed at 37° C. for two minutes in the control experiment. Depending on the solubility the respective inhibitor was added in a volume of 6 μl in DMF or water. The total volume was 600 μl. Depolymerisation of hyaluronic acid was measured in terms of viscosity change with time. Potassium hyaluronate was purchased from Sigma-Aldrich Chemie, Steinheim, Germany. All operations were performed at room temperature (22° C.). Relative viscosity was monitored by recording the time (seconds) required for a given volume (0.8 ml) of the reaction mixture to drain by gravity from the barrel of a plastic 1 ml syringe through a needle of appropriate size. The meniscus was timed as it passed between two calibration marks on the syringe barrel. […] The dye was measured at 532 nm.

[7] = thiobarbituric acid assay (2-desoxy-D-ribose decomposition, Fe(II) Fenton reaction); type: biochemical; settings: concentration dependent
Description: In a third completely different method OH-radicals generated during a Fenton reaction decomposed 2-desoxy-D-ribose. This reaction was monitored by measuring the formation of malondialdehyde-like compounds known to yield coloured thiobarbituric acid adducts which were eventually recorded at 532 nm. […] This was attributed to the extraordinary stability of this compound surviving a hydroxyl radical burst A crucial question was the survival of these benzimidazoles during Fenton-type reactions. These stability measurements were conducted employing HPLC analysis allowing the detection of remaining intact primary compounds. The thiobarbituric acid assay was performed according to the method described earlier [10]300 μl 7.5 mM 2-desoxy-D-ribose were added to 1000 μl 10 mM potassium-phosphate buffer, pH 7.4 and incubated for 30 min. at 37° C. in the presence of 100 μl inhibitor compound and 100 μl 10 mM iron(II)ammonium sulphate. The total volume was 1.5 ml. The reaction was stopped by the addition of 1 ml 1% (w/v) thiobarbituric acid dissolved in 50 mM NaOH and 1 ml of 2.8% (w/v) trichloro acetic acid and maintained for 15 min at 95° C. The control reaction mixture contained the same volume of DMFas was present in the inhibitor compound. The dye was measured at 532 nm.

Structure (SMILES)	inhibition of heme degradation ([1]; 25 μM)	inhibition of heme degradation ([1]; 50 μM)	inhibition of heme degradation ([1]; 100 μM)	inhibition of hyaluronic acid depolymerisation ([2]; 12 μM, fully aqueous assay)	biopolymer protected ([2]; 20 μM, fully aqueous assay)	reactivity in the superoxide radical scavenging system [3]	decrease of intact compound after OH-radical exposure [4]	Cmax [5]	scavenging of hydroxyl radicals [6]	inhibitory effect on OH-radical decomposition of desoxyribose [7]	inhibition of heme degradation compared to control ([1]; 50 μM)	inhibition of heme degradation compared to control ([1]; 100 μM)	mucopolysaccharide degradation ([2]; 80 μM dissolved in DMF, within 20 min)	inhibition of hyaluronic acid depolymerisation ([2]; 160 μM dissolved in DMF)
COc1ccnc(C[S+]([O-])c2nc3ccc(OC(F)F)cc3[nH]2)c1OC (centres unmarked) [pantoprazole sodium]	distinct inhibition	34%	74%	46%	90%									
COc1ccnc(C[S+]([O-])c2nc3ccc(OC(F)F)cc3[nH]2)c1OC (centres unmarked) [pantoprazole, 5-difluoromethoxy-2-[(3,4-dimethoxy-2-pyridinyl)methylsulphinyl]-1H-benzimidazole]						did not display detectable reactivity	15%	5 to 10 µM	pronounced inhibitory reactivity	inhibitory effect was clearly seen	36%	75%	48%	nearly complete inhibition

Reference: US20070027189A1, “Use of known active ingredients as radical scavengers” (Altana Pharma AG, priority 2003, published 2007)
